Assay results taken from patent publication US7345043B2, “Inhibitors of histone deacetylase” (Miikana Therapeutics, priority 2004, dated 2008).

What was measured:
[1] = system: HDAC (HeLa cell nuclear extract, a mosaic of HDAC enzymes); test: In vitro fluorescent histone deacetylase (HDAC) activity assay; type: biochemical; conditions: HeLa cell nuclear extract as HDAC source, 50 μM substrate, 10 min at room temperature (in some assays recombinant HDAC8); read-out: IC50 HDAC Inhibition
Procedure: Histone deacetylase (HDAC) activity assays were performed using the HDAC fluorescent activity assay/drug discovery kit (Biomol Research Laboratories, Plymouth Meeting, Pa.) essentially according to the manufacturer's instructions. The included HeLa cell nuclear extract, which contains a mosaic of HDAC enzymes and other nuclear factors, was used as the source of HDAC activity. The final substrate concentration in the assay mixture was 50 μM. The reaction was allowed to proceed for 10 min at room temperature before stopping the reaction. Test compounds were prepared as 20 mM stock solutions in DMSO (Molecular Biology grade, Sigma-Aldrich Co., St. Louis, Mo.) and stored at −70° C. Serial dilutions of test compounds were prepared in assay buffer immediately prior to testing. DMSO was determined in a separate trial to have no significant effect on the activity of this assay at concentrations up to 5%; the final DMSO concentration in the wells was no more than 2% and therefore DMSO effects were safely neglected. Assays were performed in white polystyrene 96-well half-area assay plates (Corning, Corning, N.Y.) and measured on a Wallace 1420 fluorescent plate reader (Wallac Oy, Turku, Finland) with an excitation wavelength of 355 nm, an emission wavelength of 460 nm, and a 1 sec signal averaging time.
In some assays recombinant HDAC8 (Biomol) was used as the source of the enzyme activity; here the final substrate concentration was 250 μM, the final concentration of HDAC8 was 0.02 u/μL and the reaction was allowed to proceed at 37° C. for 1 h before stopping. For all curves, IC50 values were calculated with the GraFit curve-fitting program (Erithacus, Horley, Surrey, UK).

MCF7 cells = test: Whole cell cytotoxicity assay: Sulforhodamine B; type: cell-based; conditions: Homo sapiens, 48 hours with drug, Sulforhodamine B staining
Procedure: Whole Cell Cytotoxicity Assay:Sulforhodamine B
The following procedure can be found on the Developmental Therapeutics Program NCI/NIH web site at http://dtp.nci.nih.gov/brancehes/btb/ivclsp.html.
1. Human tumor cell lines of HT29, A549 and MCF7 are grown in DMEM containing 10% fetal bovine serum and 2 mM L-glutamine. Cells are plated in a 96 well plate at a density of 5000 cells per well in 100 μL of growth medium and incubated at 37° C., 5% CO2, for 24 hours prior to the addition of experimental compounds.
2. Experimental drugs are solubilized in DMSO for a final concentration of 20 mM immediately prior to use. Drugs are further diluted in growth media for a total of nine drug concentrations and a growth control. At the 24-hour time point, one plate of cells is fixed in situ with TCA as a measurement of the cell population at time zero, or the time of drug addition.
3. The plates are further incubated with drug for an additional 48 hours.
4. The cells are fixed in situ by gently aspirating off the culture media and then adding 50 μL of ice cold 10% TCA per well and incubated at 4° C. for 60 minutes. The plates are washed with tap water five times and allowed to air dry for 5 minute.
5. 50 μl of a 0.4% (w/v) Sulforhodamine B solution in 1% (v/v) acetic acid is added per well and incubated for 30 minutes at room temperature.
6. Following staining, plates are washed five times with 1% acetic acid to remove any unbound dye and then allowed to air dry for 5 minutes.
7. Stain is solubilized with 100 μL of 10 mM Tris pH 10.5 per well and placed on an orbital rotator for 5 minutes.
8. Absorbance is read at 570 nm.

`O=C(NO)c1cnc(N2CCCN(S(=O)(=O)c3ccc4ccccc4c3)CC2)s1` [Example 2, 1-(2-naphthylsulfonyl)-4-(5-hydroxyaminocarbonylthiazol-2-yl)-1,4-diazepane] gave an IC50 [1] of 5.9 µM and a GI50 (MCF7 cells) of 10 µM.
In the case of `O=C(/C=C/c1cnc(N2CCN(S(=O)(=O)c3ccc4ccccc4c3)CC2)s1)NO` [Example 4], the IC50 [1] is reported as 0.045 µM and the GI50 (MCF7 cells) is reported as 0.7 µM.
Work on `O=C(/C=C/c1cnc(N2CCN(S(=O)(=O)c3ccccc3)CC2)s1)NO` [Example 4b] yielded an IC50 [1] of 0.44 µM and a GI50 (MCF7 cells) of 3 µM.
Work on `COc1ccc(S(=O)(=O)N2CCN(c3ncc(/C=C/C(=O)NO)s3)CC2)cc1OC` [Example 4c] yielded an IC50 [1] of 0.16 µM and a GI50 (MCF7 cells) of 4 µM.
With `COc1ccc(S(=O)(=O)N2CCN(c3ncc(/C=C/C(=O)NO)s3)CC2)cc1` [Example 4d] the IC50 [1] was 0.4 µM and the GI50 (MCF7 cells) was 1 µM.
`O=C(/C=C/c1cnc(N2CCN(S(=O)(=O)c3ccc(OC(F)(F)F)cc3)CC2)s1)NO` [Example 4e] was tested, and the IC50 [1] was 3.24 µM and the GI50 (MCF7 cells) was 6 µM.
Work on `Cc1ccc(S(=O)(=O)N2CCN(c3ncc(/C=C/C(=O)NO)s3)CC2)cc1` [Example 4f] yielded an IC50 [1] of 0.55 µM and a GI50 (MCF7 cells) of 2 µM.
In the case of `O=C(/C=C/c1cnc(N2CCN(S(=O)(=O)c3ccc(C(F)(F)F)cc3)CC2)s1)NO` [Example 4g], the IC50 [1] is reported as 14.5 µM and the GI50 (MCF7 cells) is reported as 3 µM.
`O=C(/C=C/c1cnc(N2CCN(S(=O)(=O)c3ccc([N+](=O)[O-])cc3)CC2)s1)NO` [Example 4h] gave an IC50 [1] of 1.63 µM and a GI50 (MCF7 cells) of 5 µM.
In the case of `O=C(/C=C/c1cnc(N2CCN(S(=O)(=O)c3cccs3)CC2)s1)NO` [Example 4i], the IC50 [1] is reported as 0.65 µM and the GI50 (MCF7 cells) is reported as 18 µM.
For `O=C(/C=C/c1cnc(N2CCN(S(=O)(=O)c3ccc(-c4ccccc4)cc3)CC2)s1)NO` [Example 4j], the IC50 [1] was 11.4 µM and the GI50 (MCF7 cells) was 1.5 µM.
`CN(C)c1cccc2c(S(=O)(=O)N3CCN(c4ncc(/C=C/C(=O)NO)s4)CC3)cccc12` [Example 4k] showed an IC50 [1] of 318 µM and a GI50 (MCF7 cells) of 4 µM.
Molecule `O=C(/C=C/c1cnc(N2CCN(S(=O)(=O)c3ccc(F)cc3)CC2)s1)NO` [Example 4m] has an IC50 [1] of 4.7 µM and a GI50 (MCF7 cells) of 2.5 µM.
`O=C(NO)c1cnc(N2CCC(NS(=O)(=O)c3ccc4ccccc4c3)CC2)s1` [Example 5] was tested, and the IC50 [1] was 0.05 µM and the GI50 (MCF7 cells) was 6 µM.
`O=C(NO)c1cnc(N2CCC(NS(=O)(=O)c3ccc(-c4ccccc4)cc3)CC2)s1` [Example 5b] gave a GI50 (MCF7 cells) of 10 µM.
`Cc1ccc(S(=O)(=O)NC2CCN(c3ncc(C(=O)NO)s3)CC2)cc1` [Example 5d] gave a GI50 (MCF7 cells) of 15 µM.
`O=C(NO)c1cnc(N2CCC(CNS(=O)(=O)c3ccc(-c4ccccc4)cc3)CC2)s1` [Example 5e, 2-(4-{[(1,1′-biphenylsulfonyl)amino]methyl}piperidin-1-yl)-1,3-thiazole-5-carboxylic acid hydroxyamide] gave a GI50 (MCF7 cells) of 2 µM.
Work on `O=C(NO)c1cnc(NC2CCN(S(=O)(=O)c3ccc4ccccc4c3)CC2)s1` [Example 5f, 2-{[1-(2-naphthylsulfonyl)piperidin-4-yl]amino}-1,3-thiazole-5-carboxylic acid hydroxyamide] yielded a GI50 (MCF7 cells) of 20 µM.
`Cc1ccc(S(=O)(=O)NC2C3CN(c4ncc(C(=O)NO)s4)CC32)cc1` (centres unmarked) [Example 5g, 2-(6-{[(4-methylphenyl)sulfonyl]amino}-3-azabicyclo[3.1.0]hex-3-yl)-1,3-thiazole-5-carboxylic acid hydroxyamide] was tested, and the IC50 [1] was 0.6 µM and the GI50 (MCF7 cells) was 8 µM.
Work on `Cc1ccc(S(=O)(=O)N2CCCN(c3ncc(C(=O)NO)s3)C2)cc1` [Example 5h] yielded an IC50 [1] of 0.67 µM and a GI50 (MCF7 cells) of 3.5 µM.
For `O=C(NO)c1cnc(N2CCN(Cc3ccccc3)CC2)s1` [Example 17, 2-(4-Benzyl-piperazin-1-yl)-thiazole-5-carboxylic acid hydroxyamide], the GI50 (MCF7 cells) was 4 µM.
`O=C(NO)c1cnc(N2CCN(CCc3ccccc3)CC2)s1` [Example 20, 2-(4-phenylethyl-piperazin-1-yl)-thiazole-5-carboxylic acid hydroxyamide] was tested, and the IC50 [1] was 118 µM.
For `O=C(CN1CCN(c2ncc(C(=O)NO)s2)CC1)c1ccccc1` [Example 20B, 2-(4-(2-oxo-2-phenylethyl)-piperazin-1-yl)-1,3-thiazole-5-carboxylic acid hydroxyamide], the GI50 (MCF7 cells) was 4 µM.
`CC(=O)N1CCN(c2ncc(C(=O)NO)s2)CC1` [Example 21, 2-(4-acetyl-piperazin-1-yl)-thiazole-5-carboxylic acid hydroxamide] gave an IC50 [1] of 2.75 µM.
In the case of `O=C(NO)c1cnc(N2CCN(C(=O)c3ccccc3)CC2)s1` [Example 22, 2-(4-benzoyl-piperazin-1-yl)-thiazole-5-carboxylic acid hydroxamide], the IC50 [1] is reported as 3.5 µM and the GI50 (MCF7 cells) is reported as 40 µM.
`O=C(NO)c1cnc(N2CCN(C(=O)Cc3ccccc3)CC2)s1` [Example 23, 2-(4-phenylacetyl-piperazin-1-yl)-thiazole-5-carboxylic acid hydroxamide] showed an IC50 [1] of 31.6 µM and a GI50 (MCF7 cells) of 20 µM.
With `O=C(NO)c1cnc(N2CCN(C(=O)CCc3c[nH]c4ccccc34)CC2)s1` [Example 23b, 2-[4-(3-{1H-indol-3-yl}propanoyl)-piperazin-1-yl]-1,3-thiazole-5-carboxylic acid hydroxyamide] the IC50 [1] was 0.87 µM and the GI50 (MCF7 cells) was 30 µM.
Molecule `O=C(NO)c1cnc(CN2CCN(S(=O)(=O)c3ccc4ccccc4c3)CC2)s1` [Example 24] has an IC50 [1] of 6.9 µM and a GI50 (MCF7 cells) of 10 µM.
`O=C(NO)c1cnc(C2CCN(S(=O)(=O)c3ccc(-c4ccccc4)cc3)CC2)s1` [Example 25, 2-[1-(1,1′-biphenyl-4-ylsulfonyl)piperidin-4-yl]-1,3-thiazole-5-carboxylic acid hydroxyamide] was tested, and the IC50 [1] was 13.1 µM and the GI50 (MCF7 cells) was 100 µM.
